Entries after “also recorded” stand apart in the source; their conditions may differ. Where a SMILES comes first, the peptide text is derived from it.
Key:
[1] = Fluorogenic addition reaction kinetics of MBP-dC10 libraries I, II and III with dansyl-dM10 fluorogen 1, plate reader, 28° C.; format: biochemical; settings: for increase in reactivity towards a dimaleimide fluorogen, triple mutants: fluorogen 1, relative to parent dC10, FIG. 10; for reactivity of single mutants A17X (second order rate constant), in words: fluorogen 1, 50 μM equimolar, pH 7.5, 28° C., FIGS. 6 and 7
Experimental: Library I with point mutants at position A17 is represented in dark grey, library II with double mutants A16-A17 is represented in light grey, and library III with triple mutants A3-A16-A17 is represented in black. The rate constant for parent MBP-dC10 is represented in white. All measurements were performed at least in duplicate. The reactivity of each single mutant of MBP-dC10 was evaluated through their reaction with dansyl-dM10 fluorogen 1 (Caron, K. et al., Org. Biomol. Chem., 9: 185-197, 2011), commonly used for test purposes. Equimolar concentrations of 50 μM of fluorogen 1 and MBP-dC10 variant were used in pH 7.5 buffer HEPES 50 mM, supplemented with 1 mM of TCEP reducing agent to reduce disulfide bonds that could form during protein purification or storage. […] Progress curves of the fluorogenic addition reaction were acquired with a plate reader that allowed us to study a large number of samples at the same time. Since the dansyl fluorophore is sensitive to its environment, the reaction of each MBP-dC10 variant led to an end point of slightly different fluorescence intensity. We used a simple second order kinetic model A+B→C where reactants A and B were used in equimolar concentrations. The product C is the only fluorescent species in the milieu and its appearance can be directly followed by increase of fluorescence. Use of this model implies that the second thiol addition is extremely fast due to its intramolecular character, and that the second order kinetic constant k2 depends exclusively on the first thiol addition. This reasonable approximation allowed us to evaluate very simply the overall dC10 reactivity modulated by the presence of stabilizing residues in the proximity of cysteines C6 and C13. Reactivity of each MBP-dC10 variant was assessed by determining the second order rate constant of the fluorogenic labelling reaction with a dansyl-dimaleimide fluorogenic molecule, referred to as dansyl-dM10 1 (FIG. 11). […] Biomol. Chem. 9: 185-197, 2011). Initial kinetic studies performed on MBP-dC10 histidine mutants S2H, R9H, A7H and S2H-A17H were done at the scale of 500 μL in the established conditions described below, using a Cary Eclipse Fluorimeter (Varian, Inc., Mississauga, Ontario, Canada) at 20° C. […] Libraries I, II and III were assayed using a plate reader: briefly, in a reaction scale of 200 μL, 50 μM MBP-dC10 (or variants) and 50 μM dansyl-dM10 1 were mixed in HEPES 50 mM pH 7.5 buffer in the presence of TCEP 1 mM. Fluorescence increase was followed at 28° C. long after completion of the reaction (2 hours) using the Synergy™ H4 Hybrid Multi-Mode Microplate Reader (BioTek, Winooski, Vt., United States) plate reader at 515 nm, upon excitation at 330 nm of the dansyl fluorophore of 1. Second order reaction constants were determined using the initial slope and the final plateau of each kinetic curve. All reactions were performed in duplicate to quadruplicate. For pH dependent kinetics, MBP-dC10 variants were dialysed into a buffer of desired pH, containing 50 mM of buffering salt (pH 7.50-8.00: HEPES; pH 8.25-8.75: Tris-HCl; pH 9.00: CHES) and 1 mM TCEP, overnight at 4° C., with gentle stirring. Fluorogenic reactions were performed in a plate reader as described above, in duplicate.

[2] = Kinetics of addition of fluorogen 1 to MBP-dC10 histidine mutants, Cary Eclipse fluorimeter, 20° C.; format: biochemical; settings: fluorogen 1, 20° C., FIG. 4
Experimental: To start, we used fluorogen 1.
Reactivity of each MBP-dC10 variant was assessed by determining the second order rate constant of the fluorogenic labelling reaction with a dansyl-dimaleimide fluorogenic molecule, referred to as dansyl-dM10 1 (FIG. 11). Dansyl-dM10 was synthesized as described (Caron, K. et al., Org. Biomol. Chem. 9: 185-197, 2011). Initial kinetic studies performed on MBP-dC10 histidine mutants S2H, R9H, A7H and S2H-A17H were done at the scale of 500 μL in the established conditions described below, using a Cary Eclipse Fluorimeter (Varian, Inc., Mississauga, Ontario, Canada) at 20° C.

[3] = pH-rate profile of MBP-dC10 mutants with dansyl-dimaleimide fluorogen, pH 7.50-9.00; format: physicochemical; settings: from horizontal displacement of best fit lines of pH-rate profile, FIG. 8
Description: A pH range between 7.50 and 9.00 was explored to determine the dependence of the second order rate constant on pH. Only several mutants from libraries II and III were chosen for this pH study: Triple mutants containing lysine and arginine (black line), triple mutants containing histidine and lysine or arginine (light grey line), double mutants (dark grey line) and parent dC10 (dashed line).
Considering the relative reactivity of the members of all three mutant libraries, additional studies were undertaken to attempt to quantify the effect of positively charged residues on the acidity of the cysteine residue thiol groups. […]
Libraries I, II and III were assayed using a plate reader: briefly, in a reaction scale of 200 μL, 50 μM MBP-dC10 (or variants) and 50 μM dansyl-dM10 1 were mixed in HEPES 50 mM pH 7.5 buffer in the presence of TCEP 1 mM. Fluorescence increase was followed at 28° C. long after completion of the reaction (2 hours) using the Synergy™ H4 Hybrid Multi-Mode Microplate Reader (BioTek, Winooski, Vt., United States) plate reader at 515 nm, upon excitation at 330 nm of the dansyl fluorophore of 1. Second order reaction constants were determined using the initial slope and the final plateau of each kinetic curve. […] Fluorogenic reactions were performed in a plate reader as described above, in duplicate.

[4] = In vitro reactivity of dC10 and dC10* with fluorogen 3; format: biochemical; settings: fluorogen 3, 50 μM equimolar, 28° C., FIG. 13
Experimental: (§1) Second order rate constant ratios are shown for fluorogen 3 (grey), and fluorogen 4 (black). Ratios were obtained by normalizing all rate constants to the rate constant of parent MBP-dC10. Absolute values of second order rate constants in M^−1min^−1 are shown for each fluorogen and dC10 or dC10*, and were obtained using equimolar concentration of 50 μM of fluorogen and test protein, at 28° C. Results were obtained at least in duplicate.
(§2) To extend the results shown above with fluorogens 1 and 2, we tested whether the labelling of dC10* (dC10-A3KA16RA17K) with other coumarin fluorogens would also show a kinetic advantage compared to dC10.

[5] = In vitro reactivity of dC10 and dC10* with fluorogen 4; format: biochemical; settings: fluorogen 4, 50 μM equimolar, 28° C., FIG. 13
Experimental: as §1, §2

L1SRAECAAREAACRERKARAGGK23 (LSRAECAAREAACRERKARAGGK) [dC10-A3RA16RA17K]
increase in reactivity towards a dimaleimide fluorogen, triple mutants [1]: ~10 fold

L1SRAECAAREAACREKKARAGGK23 (LSRAECAAREAACREKKARAGGK) [dC10-A3RA16KA17K]
increase in reactivity towards a dimaleimide fluorogen, triple mutants [1]: ~10 fold

L1SAAECAAHEAACREAAARAGGK23 (LSAAECAAHEAACREAAARAGGK) [dC10-R9H]
reactivity (second order kinetic constant) compared with parent dC10 [2]: did not appear to be more reactive than dC10

L1HAAECAAREAACREAHARAGGK23 (LHAAECAAREAACREAHARAGGK) [dC10-S2HA17H]
reactivity (second order kinetic constant) compared with parent dC10 [2]: more reactive than the parent dC10

L1SAAECAAREAACREAHARAGGK23 (LSAAECAAREAACREAHARAGGK) [dC10-A17H]
reactivity of single mutants A17X (second order rate constant), in words [1]: reacts faster than the parent dC10 peptide tag; also recorded: does not react as fast as the A17K mutant

L1SAAECAAREAACREHKARAGGK23 (LSAAECAAREAACREHKARAGGK) [dC10-A16HA17K]
reactivity compared among double mutants A16X-A17K ([1]; fluorogen 1, FIG. 10): not as reactive as double mutants A16K-A17K and A16R-A17K

L1HAAECAAREAACREAAARAGGK23 (LHAAECAAREAACREAAARAGGK) [dC10-S2H]
reactivity (second order kinetic constant) compared with parent dC10 [2]: did not appear to be more reactive than dC10

L1SAAECAAREAACREAKARAGGK23 (LSAAECAAREAACREAKARAGGK) [dC10-A17K]
reactivity of single mutants A17X (second order rate constant), in words [1]: best dC10 single mutant

L1SKAECAAREAACREKKARAGGK23 (LSKAECAAREAACREKKARAGGK) [dC10-A3KA16KA17K]
increase in reactivity towards a dimaleimide fluorogen, triple mutants [1]: ~10 fold

CC(C)C[C@H](N)C(=O)N[C@@H](CO)C(=O)N[C@@H](CCCCN)C(=O)N[C@@H](C)C(=O)N[C@@H](CCC(=O)O)C(=O)N[C@@H](CS)C(=O)N[C@@H](C)C(=O)N[C@@H](C)C(=O)N[C@@H](CCCNC(=N)N)C(=O)N[C@@H](CCC(=O)O)C(=O)N[C@@H](C)C(=O)N[C@@H](C)C(=O)N[C@@H](CS)C(=O)N[C@@H](CCCNC(=N)N)C(=O)N[C@@H](CCC(=O)O)C(=O)N[C@@H](CCCNC(=N)N)C(=O)N[C@@H](CCCCN)C(=O)N[C@@H](C)C(=O)N[C@@H](CCCNC(=N)N)C(=O)N[C@@H](C)C(=O)NCC(=O)NCC(=O)N[C@@H](CCCCN)C(=O)O [dC10-A3KA16RA17K] (H-LSKAECAAREAACRERKARAGGK-OH; N-terminus and C-terminus assumed)
pKa lower than that of the parent dC10 sequence [3]: 0.70 units

L1SAAECHAREAACREAAARAGGK23 (LSAAECHAREAACREAAARAGGK) [dC10-A7H]
reactivity (second order kinetic constant) compared with parent dC10 [2]: did not appear to be more reactive than dC10

L1SAAECAAREAACREAAARAGGK23 (LSAAECAAREAACREAAARAGGK) [dC10, previously described parent dicysteine alpha-helical peptide tag]
rate enhancement compared to dC10 [4]: 4 fold
rate enhancement compared to dC10 [5]: 2 fold

Reference: patent US10591485B2, “Peptide tags for fluorescent labelling of proteins” (UNIVERSITY OF OTTAWA, priority 2015, dated 2020)
